Reference: patent US20190374506A1, “COMPOSITIONS AND METHODS FOR TREATING CANCER” (BETH ISREAL DEACONESS MEDICAL CENTER, priority 2016, published 2019)

Tests used:
[1] = system: PTEN/AKT pathway in DU145 cells (PTEN competent); test: Western blot analysis of PTEN/AKT pathway in DU145 cells; assay type: cell-based, human; conditions: different doses of I3C for 3 Days
Procedure: FIG. 11B provides an analysis of effects of I3C on PTEN/AKT pathway in DU145 or PC3 cells by western blot analysis. Cells were treated with different doses of I3C for 3 Days, and followed by western blot analysis. Whether targeting WWP1/NEDD4-1, thereby enhancing PTEN dimerization and function, could offer a unique opportunity to treat MYC-driven cancers was investigated. […] As there is no small pharmacological inhibitor currently available to suppress/inhibit WWP1 activity, Indole-3-Carbinol (I3C), a potential WWP1 inhibitor, which suppresses the WWP1 activity through binding to its HECT domain, was used. First, to assess the on-target effects of I3C towards WWP1, Wwp1^−/− MEFs were used. […] Additionally, two independent PTEN stably knocked-down cells were generated. […] Western Blotting and Immunoprecipitation. For western blotting, cells were lysed in RIPA buffer (Boston BioProducts) supplemented with protease (Roche) and phosphatase (Roche) inhibitor. Proteins were separated on NuPAGE 4-12% Bis-Tris gradient gels (Invitrogen), transferred to polyvinylidine difluoride membranes (Immobilon P, Millipore) and the blots were probed with the indicated antibodies. For immunoprecipitation, PC3, 293T and MEF cells were transfected with the indicated expression vectors by using LIPOFECTAMIN 2000 (Life Technologies). 24 hours after transfection, cells were lysed in RIPA buffer with protease (Roche) and phosphatase (Roche) inhibitor. 500 μg of total lysates were pre-cleared for 30 minutes at 4° C., and then immunoprecipitated with anti-Myc (Cell Signaling Technology 9B11, 1:500), or anti-PTEN (Cell Signaling Technology 9559, 1:500) antibody overnight at 4° C. The Protein-A or Protein-G sepharose beads (GE Healthcare) were then added and incubated for another 2 hours. The immunoprecipitates were washed with RIPA buffer three times. In denaturing conditions, standard Laemmli-Buffer with 5% final concentration of β-mercaptoethanol was added to the samples, which were then boiled and separated on NuPAGE 4-12% Bis-Tris gradient gels (Invitrogen). […]

[2] = system: WWP1/NEDD4-1 E3 mediated PTEN K27-linked poly-ubiquitination; test: In vivo ubiquitination assay (Ni-NTA pull down, western blot) in DU145 cells; assay type: cell-based, human; conditions: 10 μM or 20 μM I3C for 4 Days
Procedure: DU145 cells expressing indicated plasmids were treated with 10 μM or 20 μM of I3C for 4 Days. The ubiquitinated PTEN was pulled down under denaturing conditions by Ni-NTA agarose and analysed by the western blot. Whether targeting WWP1/NEDD4-1, thereby enhancing PTEN dimerization and function, could offer a unique opportunity to treat MYC-driven cancers was investigated. […] As there is no small pharmacological inhibitor currently available to suppress/inhibit WWP1 activity, Indole-3-Carbinol (I3C), a potential WWP1 inhibitor, which suppresses the WWP1 activity through binding to its HECT domain, was used. First, to assess the on-target effects of I3C towards WWP1, Wwp1^−/− MEFs were used. […] Additionally, two independent PTEN stably knocked-down cells were generated. […] To analyse in vivo ubiquitination of PTEN, cells were transfected with various constructs, together with His-Ubiquitin and Myc-PTEN. Cells were lysed by buffer A (6 M guanidine-HCl, Na2HPO4/NaH2PO4 [pH 8.0], and 10 mM imidazole), and lysates were incubated with Ni-NTA agarose for 1.5 hours at 4° C. The beads were washed once with buffer A, twice with buffer ANTI (1 vol buffer A: 3 vol buffer TI [25 mM Tris-HCl, pH 6.8, and 20 mM imidazole]), and three times with buffer TI, and then analysed by western blot. In all experiments, an equal amount of His-Ubiquitin expression was verified by western blot analysis.

[3] = system: PC3 cells (PTEN-null); test: Growth curves, colorimetric MTT assay, PC3 cells; assay type: cell-based, human; conditions: various doses of I3C for 5 Days
From the text: FIG. 11C provides growth curves of DU145 (PTEN competent) or PC3 cells (PTEN null) treated with various doses of I3C for 5 Days, and then assayed with colorimetric MTT assay (three experiments). Whether targeting WWP1/NEDD4-1, thereby enhancing PTEN dimerization and function, could offer a unique opportunity to treat MYC-driven cancers was investigated. […] As there is no small pharmacological inhibitor currently available to suppress/inhibit WWP1 activity, Indole-3-Carbinol (I3C), a potential WWP1 inhibitor, which suppresses the WWP1 activity through binding to its HECT domain, was used. First, to assess the on-target effects of I3C towards WWP1, Wwp1^−/− MEFs were used. […] Additionally, two independent PTEN stably knocked-down cells were generated.

[4] = biological target: WWP1 (Homo sapiens, UniProt Q9H0M0); test: MicroScale Thermophoresis (MST) binding analysis of I3C towards WWP1
WWP1, sequence (Q9H0M0 whole entry): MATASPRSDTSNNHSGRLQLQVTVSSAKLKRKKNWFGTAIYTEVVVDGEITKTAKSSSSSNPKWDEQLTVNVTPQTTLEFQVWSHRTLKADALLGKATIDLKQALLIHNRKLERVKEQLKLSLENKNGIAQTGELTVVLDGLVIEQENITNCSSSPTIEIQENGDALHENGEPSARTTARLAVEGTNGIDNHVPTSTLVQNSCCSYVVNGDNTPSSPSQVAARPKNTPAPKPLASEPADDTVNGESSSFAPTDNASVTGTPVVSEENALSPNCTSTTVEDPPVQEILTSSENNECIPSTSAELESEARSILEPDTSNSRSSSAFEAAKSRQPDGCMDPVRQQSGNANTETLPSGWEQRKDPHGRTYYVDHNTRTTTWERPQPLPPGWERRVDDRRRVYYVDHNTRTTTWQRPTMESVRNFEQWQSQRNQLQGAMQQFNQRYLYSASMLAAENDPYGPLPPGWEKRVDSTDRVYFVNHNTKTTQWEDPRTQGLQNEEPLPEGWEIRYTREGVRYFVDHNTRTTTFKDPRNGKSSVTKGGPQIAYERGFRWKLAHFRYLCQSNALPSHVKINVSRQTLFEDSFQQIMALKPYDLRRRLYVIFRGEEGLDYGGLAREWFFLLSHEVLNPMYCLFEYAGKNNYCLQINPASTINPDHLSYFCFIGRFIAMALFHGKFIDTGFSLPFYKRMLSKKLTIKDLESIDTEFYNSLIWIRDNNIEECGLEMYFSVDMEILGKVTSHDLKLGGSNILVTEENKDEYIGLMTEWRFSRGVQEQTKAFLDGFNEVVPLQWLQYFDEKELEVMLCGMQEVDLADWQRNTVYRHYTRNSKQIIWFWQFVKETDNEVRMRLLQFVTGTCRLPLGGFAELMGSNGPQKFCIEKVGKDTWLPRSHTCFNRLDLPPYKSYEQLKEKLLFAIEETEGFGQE
From the text: FIG. 10B provides the MST analysis of I3C towards WWP1. […] When I3C was superimposed onto the covalent inhibitor and WWP1 onto NEDD4-1, a model was generated showing I3C-bound WWP1 with the binding pocket formed by residues F577, L630, Y628, C629, N650, and Y656. […] The experiments of this example next confirmed this hypothesis by MicroScale Thermophoresis (MST) binding analysis.

In the case of OCc1c[nH]c2ccccc12 [I3C, indole-3-carbinol], the AKT activation [1] is reported as “dose-dependent AKT suppression”, the PTEN protein level [1] is reported as “without affecting PTEN protein level” and the apoptosis [1] is reported as “concomitant induction of apoptosis”. For the same molecule, the “PTEN K27-linked poly-ubiquitination” value [2] was “robustly diminished”, the cell growth [3] was “only modestly suppressed cell growth” and the “binding affinity for WWP1 compared to NEDD4-1” value ([4]; MST Kd for WWP1 versus literature Kd for NEDD4-1) was “significantly stronger binding affinity”. It also gave a Kd ([4]; MST binding analysis, read-out: dissociation constant (Kd) of I3C binding to WWP1) of roughly 120 nM.
